Experimental data: publication PMC6805867, “Amphiphilic Triazine Polymer Derivatives as Antibacterial And Anti-atopic Agents in Mice Model” (Scientific Reports, 2019)

Legend:
Type in all cases: cell-based
[1] = system: selected bacterial strains; assay: Geometric mean of MIC values over the bacterial strains; settings: geometric mean of MIC values from selected six bacterial strains (footnote b)
Experimental: (§1) The bacterial strains employed in the experiment were Escherichia coli (KCTC 1682), Pseudomonas aeruginosa (KCTC 1637), Bacillus subtilis (KCTC 3068), Staphylococcus aureus (KCTC 1621), three methicillin-resistant Staphylococcus aureus (CCARM 3089, 3090 and 3095), two multidrug-resistant Pseudomonas aeruginosa (CCARM 2095 and 2109) and vancomycin-resistant Enterococcus faecium (ATCC 51559). The antimicrobial activities of polymers were determined by the broth microdilution method, and the procedures were used as previously reported. Briefly, bacteria grown to mid-logarithmic phase in LB broth were diluted to 2 × 10^6 CFU/mL in 1% peptone and added to serial two-fold dilutions of different polymers ranging from 1 to 64 μg/mL. The plates were incubated in a shaking incubator at 37 °C for 18–22 h. The minimum inhibitory concentration (MIC) was determined by confirming the absence of bacterial growth both visually and spectrophotometrically by OD600 readings taken by a microplate ELISA reader (Molecular Devices, Sunnyvale, CA, USA). All measurements were performed three times.

[2] = system: Staphylococcus aureus (KCTC 1621); assay: Antimicrobial activity, broth microdilution MIC; settings: 2 × 10^6 CFU/mL in 1% peptone, 37 °C, 18–22 h, 100% inhibition of growth, performed three times
Experimental: as §1

[3] = system: Bacillus subtilis (KCTC 3068); assay: Antimicrobial activity, broth microdilution MIC; settings: 2 × 10^6 CFU/mL in 1% peptone, 37 °C, 18–22 h, 100% inhibition of growth, performed three times
Experimental: as §1

[4] = system: Pseudomonas aeruginosa (KCTC 1637); assay: Antimicrobial activity, broth microdilution MIC; settings: 2 × 10^6 CFU/mL in 1% peptone, 37 °C, 18–22 h, 100% inhibition of growth, performed three times
Experimental: as §1

[5] = system: Escherichia coli (KCTC 1682); assay: Antimicrobial activity, broth microdilution MIC; settings: 2 × 10^6 CFU/mL in 1% peptone, 37 °C, 18–22 h, 100% inhibition of growth, performed three times
Experimental: as §1

[6] = system: Multidrug-resistant Pseudomonas aeruginosa (MDRPA) (CCARM 2095); assay: Chequerboard assay (synergy with clinically used antibiotics); settings: for FICA (fractional inhibitory concentration of antibiotic): [A]/MICA; for MICA (MIC of antibiotic alone): MDRPA CCARM 2095, 37 °C, 22 h, unit printed only in b27, not in the table; for [A] (MIC of antibiotic in combination): MDRPA CCARM 2095, unit not given
Experimental: Briefly, 2-fold serial dilutions of each antibiotic and each polymer were prepared and added in a 1:1 volume ratio to the wells of a 96-well plate. An equal volume of bacterial solution (100 μL) at ∼10^6 CFU/mL was then seeded into each well. The plates were incubated in a shaking incubator at 37 °C and 200 rpm and read after 22 h. Bacterial growth was assessed visually or spectrophotometrically via OD600 readings taken by a microplate ELISA reader (Molecular Devices, Sunnyvale, CA, USA). The fractional inhibitory concentration index (FICI) for each drug combination was calculated using the following equation: FICI = FICA + FICB = [A]/MICA + [B]/MICB, where MICA and MICB are the MIC of antibiotic and triazine based monomer (TZP3 or TZP5), respectively, while [A] and [B] are the MIC of antibiotic and triazine based monomer (TZP3 or TZP5) in combination, respectively. FICI of ≤ 0.5 was interpreted as synergy, 0.5 < FICI ≤ 1.0 as additive, 1.0 < FICI ≤ 4.0 as indifferent, and a FICI > 4.0 as antagonism.

Compound | GM (geometric mean of MIC values) [1] | MIC Staphylococcus aureus (KCTC 1621) [2] | MIC Bacillus subtilis (KCTC 3068) [3] | MIC Pseudomonas aeruginosa (KCTC 1637) [4] | MIC Escherichia coli (KCTC 1682) [5] | FICA (fractional inhibitory concentration of antibiotic) ([6]; in combination with TZP3) | FICA (fractional inhibitory concentration of antibiotic) ([6]; in combination with TZP5) | MICA (MIC of antibiotic alone) [6] | MICA (MIC of antibiotic alone) ([6]; listed as chloramphenicol) | [A] (MIC of antibiotic in combination) ([6]; in combination with TZP3) | [A] (MIC of antibiotic in combination) ([6]; in combination with TZP5) | MICA (MIC of antibiotic alone) ([6]; listed as oxacillin)
NCCCN(CCCN)c1nc(NCCNc2nc(N)nc(N(Cc3ccccc3)Cc3ccccc3)n2)nc(NCCNc2nc(Cl)nc(N(Cc3ccccc3)Cc3ccccc3)n2)n1 [TZP8] | 38.0 [41.1] μg/mL | 8 [8.7] μg/mL | 8 [8.7] μg/mL | >64 [>69.3] μg/mL | 8 [8.7] μg/mL |  |  |  |  |  |  | 
N=C(N)NCCCN(CCCNC(=N)N)c1nc(Cl)nc(NCCNc2nc(NCCNc3nc(N)nc(NCCC(c4ccccc4)c4ccccc4)n3)nc(N(CCCNC(=N)N)CCCNC(=N)N)n2)n1 [TZP10] | 7.0 [6.7] μg/mL | 4 [3.8] μg/mL | 4 [3.8] μg/mL | 16 [15.4] μg/mL | 4 [3.8] μg/mL |  |  |  |  |  |  | 
NCCCN(CCCN)c1nc(Cl)nc(NCCNc2nc(NCCNc3nc(NCCNc4nc(N)nc(NCCC(c5ccccc5)c5ccccc5)n4)nc(N(CCCN)CCCN)n3)nc(NCCC(c3ccccc3)c3ccccc3)n2)n1 [TZP12] | 8.0 [5.8] μg/mL | 4 [2.9] μg/mL | 8 [5.8] μg/mL | 16 [11.5] μg/mL | 4 [2.9] μg/mL |  |  |  |  |  |  | 
N=C(N)NCCCN(CCCNC(=N)N)c1nc(Cl)nc(NCCNc2nc(NCCNc3nc(N)nc(N(CCCN)CCCN)n3)nc(N(Cc3ccccc3)Cc3ccccc3)n2)n1 [TZP6] | 2.5 [2.7] μg/mL | 2 [2.1] μg/mL | 2 [2.1] μg/mL | 4 [4.2] μg/mL | 2 [2.1] μg/mL |  |  |  |  |  |  | 
NCCCN(CCCN)c1nc(N)nc(NCCNc2nc(NCCNc3nc(Cl)nc(N(Cc4ccccc4)Cc4ccccc4)n3)nc(N(CCCN)CCCN)n2)n1 [TZP4] | 2.5 [2.9] μg/mL | 2 [2.3] μg/mL | 2 [2.3] μg/mL | 4 [4.7] μg/mL | 2 [2.3] μg/mL |  |  |  |  |  |  | 
O=C(N[C@H](CO)[C@H](O)c1ccc([N+](=O)[O-])cc1)C(Cl)Cl [Chloramphenicol, chloramphenicol, reference compound] |  |  |  |  |  | 0.031 | 0.031 | 512 µM | 512−1024 μM | 16 | 16 | 
N=C(N)NCCCN(CCCNC(=N)N)c1nc(Cl)nc(NCCNc2nc(NCCNc3nc(NCCNc4nc(N)nc(NCCC(c5ccccc5)c5ccccc5)n4)nc(N(CCCNC(=N)N)CCCNC(=N)N)n3)nc(NCCC(c3ccccc3)c3ccccc3)n2)n1 [TZP11] | 10.0 µg/mL | 8 [9.2] μg/mL | 8 [9.2] μg/mL | 16 [18.3] μg/mL | 8 [9.2] μg/mL |  |  |  |  |  |  | 
NCCCN(CCCN)c1nc(N)nc(NCCNc2nc(Cl)nc(N(CCCN)CCCN)n2)n1 [TZP1] | 48.0 [91.3] μg/mL | 32 [60.8] μg/mL | 64 [121.7] μg/mL | 64 [121.7] μg/mL | 32 [60.8] μg/mL |  |  |  |  |  |  | 
N=C(N)NCCCN(CCCNC(=N)N)c1nc(N)nc(NCCNc2nc(Cl)nc(N(Cc3ccccc3)Cc3ccccc3)n2)n1 [TZP2] | 3.5 [5.2] μg/mL | 2 [3] μg/mL | 2 [3] μg/mL | 8 [11.8] μg/mL | 2 [3] μg/mL |  |  |  |  |  |  | 
NCCCN(CCCN)c1nc(N)nc(NCCNc2nc(NCCNc3nc(Cl)nc(N(CCCN)CCCN)n3)nc(N(CCCN)CCCN)n2)n1 [TZP7] | 12.0 [15.2] μg/mL | 16 [20.2] μg/mL | 8 [10.1] μg/mL | 8 [10.1] μg/mL | 16 [20.2] μg/mL |  |  |  |  |  |  | 
N=C(N)NCCCN(CCCNC(=N)N)c1nc(N)nc(NCCNc2nc(NCCNc3nc(Cl)nc(N(CCCNC(=N)N)CCCNC(=N)N)n3)nc(N(Cc3ccccc3)Cc3ccccc3)n2)n1 [TZP9] | 3.5 [3.4] μg/mL | 2 [1.9] μg/mL | 2 [1.9] μg/mL | 8 [7.8] μg/mL | 2 [1.9] μg/mL |  |  |  |  |  |  | 
NCCCN(CCCN)c1nc(N)nc(NCCNc2nc(NCCNc3nc(NCCNc4nc(NCCNc5nc(Cl)nc(N(CCCN)CCCN)n5)nc(N(CCCN)CCCN)n4)nc(N(CCCN)CCCN)n3)nc(N(CCCN)CCCN)n2)n1 [TZP13] | 7.0 [5.7] μg/mL | 8 [6.6] μg/mL | 4 [3.3] μg/mL | 8 [6.6] μg/mL | 8 [6.6] μg/mL |  |  |  |  |  |  | 
Cc1onc(-c2ccccc2)c1C(=O)N[C@@H]1C(=O)N2[C@@H]1SC(C)(C)[C@@H]2C(=O)O [Oxacillin, oxacillin, reference compound] |  |  |  |  |  | 1.0 | 1.0 | 1024 µM |  | 1024 | 1024 | 512−1024 μM
